This is an account of results in ChEMBL document CHEMBL3585271 (Bioorg Med Chem, 2015).

pIC50: −log10 of the molar value.

Broadly, the pIC50 is the negative decadic logarithm of the IC50, by convention in mol/L. Broadly, the Papp is a coefficient for how fast a substance crosses the barrier.

The target in data set [1] is T1, Amine oxidase [flavin-containing] A (Homo sapiens, UniProt P21397).
T1 sequence (P21397 whole entry): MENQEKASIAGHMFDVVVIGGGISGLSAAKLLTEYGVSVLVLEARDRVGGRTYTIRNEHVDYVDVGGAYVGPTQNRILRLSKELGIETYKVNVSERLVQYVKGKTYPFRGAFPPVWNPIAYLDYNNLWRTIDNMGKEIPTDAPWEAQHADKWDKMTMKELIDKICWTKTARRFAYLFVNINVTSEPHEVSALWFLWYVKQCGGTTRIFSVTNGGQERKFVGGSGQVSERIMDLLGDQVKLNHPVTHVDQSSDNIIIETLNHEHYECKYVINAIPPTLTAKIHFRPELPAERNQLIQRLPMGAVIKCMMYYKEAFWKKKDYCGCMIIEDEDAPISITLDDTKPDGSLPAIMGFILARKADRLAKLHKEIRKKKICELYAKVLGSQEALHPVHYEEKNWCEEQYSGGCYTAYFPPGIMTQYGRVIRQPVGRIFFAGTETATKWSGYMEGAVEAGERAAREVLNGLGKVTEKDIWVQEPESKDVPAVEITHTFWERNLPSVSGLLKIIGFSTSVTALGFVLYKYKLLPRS
Description: Inhibition of human recombinant MAO-A using p-tyramine as substrate incubated for 15 mins prior to substrate addition measured after 20 mins by fluorescence plate reader analysis

A short description of data set [2]: Antioxidant activity assessed as trolox equivalent of AAPH radical scavenging activity compound preincubated for 10 mins followed by AAPH challenge measured every min for 120 mins by ORAC-FL assay. Type of data set: physicochemical. The conditions noted are these: 2 h.
The target in data set [3] is Amyloid-beta precursor protein (Homo sapiens) (UniProt P05067). The data set is described as follows: Inhibition of Cu2+-induced amyloid beta (1 to 42) aggregation (unknown origin) at 50 uM after 24 hrs by thioflavin T fluorescence assay (reference value: 100%). The arrangement: scale not given: the % may be the effect or the level left.
Sequence of Amyloid-beta precursor protein (Homo sapiens) (P05067 whole entry): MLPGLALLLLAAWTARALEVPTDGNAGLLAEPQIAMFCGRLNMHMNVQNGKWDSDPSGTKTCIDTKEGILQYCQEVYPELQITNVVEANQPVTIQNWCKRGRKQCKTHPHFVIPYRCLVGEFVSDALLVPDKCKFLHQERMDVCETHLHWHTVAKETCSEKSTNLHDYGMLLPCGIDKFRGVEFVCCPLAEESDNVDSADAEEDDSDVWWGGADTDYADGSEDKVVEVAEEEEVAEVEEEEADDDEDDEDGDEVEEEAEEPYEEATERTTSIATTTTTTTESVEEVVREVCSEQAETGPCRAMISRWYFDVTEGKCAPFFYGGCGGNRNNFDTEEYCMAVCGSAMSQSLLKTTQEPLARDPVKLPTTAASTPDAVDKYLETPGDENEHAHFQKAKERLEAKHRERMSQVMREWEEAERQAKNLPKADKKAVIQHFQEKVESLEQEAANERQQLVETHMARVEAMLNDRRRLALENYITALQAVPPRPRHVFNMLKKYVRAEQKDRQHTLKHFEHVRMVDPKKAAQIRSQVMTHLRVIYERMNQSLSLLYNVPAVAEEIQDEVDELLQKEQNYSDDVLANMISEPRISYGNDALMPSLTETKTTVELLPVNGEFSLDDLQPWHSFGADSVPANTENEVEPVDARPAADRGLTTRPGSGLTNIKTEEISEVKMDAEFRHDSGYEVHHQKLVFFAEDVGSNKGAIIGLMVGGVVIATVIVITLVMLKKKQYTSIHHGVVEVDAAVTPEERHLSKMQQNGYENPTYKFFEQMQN
Data set [4] concerns the target T2, Amine oxidase [flavin-containing] B (Homo sapiens, UniProt P27338).
T2 sequence (P27338 whole entry): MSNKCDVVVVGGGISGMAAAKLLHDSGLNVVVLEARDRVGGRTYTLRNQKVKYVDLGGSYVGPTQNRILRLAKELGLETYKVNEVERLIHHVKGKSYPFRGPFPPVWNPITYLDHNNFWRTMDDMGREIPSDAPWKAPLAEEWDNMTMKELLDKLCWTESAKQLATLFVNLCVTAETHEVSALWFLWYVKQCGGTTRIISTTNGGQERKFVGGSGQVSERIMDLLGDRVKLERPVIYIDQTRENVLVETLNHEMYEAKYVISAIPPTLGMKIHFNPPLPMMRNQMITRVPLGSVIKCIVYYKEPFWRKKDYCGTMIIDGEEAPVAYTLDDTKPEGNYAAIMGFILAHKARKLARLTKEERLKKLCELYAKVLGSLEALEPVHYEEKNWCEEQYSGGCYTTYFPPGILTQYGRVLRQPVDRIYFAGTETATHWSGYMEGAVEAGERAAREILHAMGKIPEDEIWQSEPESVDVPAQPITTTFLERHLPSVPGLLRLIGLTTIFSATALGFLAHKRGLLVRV
Description: Inhibition of human recombinant MAO-B using benzylamine as substrate incubated for 15 mins prior to substrate addition measured after 20 mins by fluorescence plate reader analysis

A short description of another data set: physchem. The conditions noted are these: PAMPA. Background: The PAMPA barrier holds no transporters, so it reflects passive diffusion.
The species named for a further data set is Homo sapiens. The data set is described as follows: Selectivity index, ratio of IC50 for human recombinant MAO-A to IC50 for human recombinant MAO-B.
Data set [5] in a line: Metal chelating activity of the compound assessed as Cu2+ complex formation at 40 uM after 30 mins by UV-vis spectrometry. Type of data set: physicochemical. Particulars: 0.5 h; call rule not given here.
Data set [6] in a line: Metal chelating activity of the compound assessed as Fe2+ complex formation at 40 uM after 30 mins by UV-vis spectrometry. Particulars: 0.5 h. Format: physicochemical.
A short description of data set [7]: Metal chelating activity of the compound assessed as Zn2+ complex formation at 40 uM after 30 mins by UV-vis spectrometry. Type of data set: physicochemical. The conditions noted are these: 0.5 h.

Description for physchem: Permeability of the compound at 100 ug/mL after 10 hrs by PAMPA-BBB assay

For `C#CCN(C)[C@H](C)Cc1ccc(NCc2ncccc2OC)cc1`, the pIC50 in data set [1] was 5.47; in [4], 6.51. In addition, the Activity came out at 1.49 µmol in data set [2] and 69.1% in data set [3].

For the compound `C#CCN(C)[C@H](C)Cc1ccc(NCc2cc(O)ccc2O)cc1`, the pIC50 in [1] was 5.99; in data set [4], 6.37. This compound also gave a Papp at 10 h, 100 ug/mL in “physchem” of 3.1 ×10⁻⁶ cm/s. Besides, the Activity in data set [2] was found to be 5.67 µmol; in data set [3], 63.1%. For the same compound, the Ratio IC50 in the data set listed under Homo sapiens turned out to be 2.4.

On to `C#CCN(C)[C@H](C)Cc1ccc(NCc2ccc(OC)cc2O)cc1`, for which the Activity in data set [2] turned out to be 4.35 µmol. The negative logarithm of the IC50 (pIC50) in data set [4] is under 6.00.

Take `C#CCN(C)[C@H](C)Cc1ccc(NCc2ccccc2O)cc1`: the values for the pIC50 in [1] and in data set [4] were 5.27 and 6.68, respectively. Further, the Activity result in data set [5] is “Active”; in data set [2], 4.2 µmol; in [3], 40.4%; in [6], “Active”; in data set [7], “Active”. In addition, the Papp at 10 h, 100 ug/mL in the data set “physchem” was 11.5 ×10⁻⁶ cm/s. In addition, in the data set filed under Homo sapiens, the Ratio IC50 was 25.6.

With `C#CCN(C)[C@H](C)Cc1ccc(NCc2cc(Cl)ccc2O)cc1`, the pIC50 in data set [1] is 6.15; in [4] it was 6.51. In addition, the Activity in data set [2] was 4.44 µmol. In addition, the Ratio IC50 in the data set filed under Homo sapiens worked out at 2.2.

`C#CCN(C)[C@H](C)Cc1ccc(NCc2cc(N(C)C)ccc2O)cc1` gave a Papp at 10 h, 100 ug/mL in the data set “physchem” of 12.5 ×10⁻⁶ cm/s. In data set [2], the Activity is 4.52 µmol. The compound also gave a pIC50 in [4] of under 6.00.

Turning to `C#CCN(C)[C@H](C)Cc1ccc(NCc2cc(OC)ccc2O)cc1`, the pIC50 was 5.99 in data set [1] and 6.51 in data set [4]. The same compound returned a Papp at 10 h, 100 ug/mL in the data set “physchem” of 11.7 ×10⁻⁶ cm/s. The Activity in [2] came to 3.81 µmol. Moreover, the Ratio IC50 in the data set filed under Homo sapiens is 3.3.

As to `CCN(CC)CCCC(C)Nc1ccnc2cc(Cl)ccc12` (stereo not given), the Activity in [3] was 68.2%.

As to `C#CCN(C)[C@H](C)Cc1ccc(NCc2ncccc2C)cc1`, the values for the pIC50 in data set [1] and in [4] were 5.26 and 6.28, respectively. This compound also showed a Papp at 10 h, 100 ug/mL in the data set “physchem” of 12.1 ×10⁻⁶ cm/s. In addition, in data set [2], the Activity was found to be 1.78 µmol. The Ratio IC50 in the data set listed under Homo sapiens was found to be 10.6.

`C#CCN(C)[C@H](C)Cc1ccc(NCc2cc(F)ccc2O)cc1`: in [2], the Activity amounted to 2.26 µmol. In [4], this compound gave a pIC50 of under 6.00.

Regarding `C#CCN(C)[C@H](C)Cc1ccc(NCc2cc([N+](=O)[O-])ccc2O)cc1`, in [2], the Activity came out at 2.1 µmol. The pIC50 in [4] was 6.02.

On to `C#CCN(C)[C@H](C)Cc1ccc(NCc2cccc(OC)c2O)cc1`, for which the Activity in data set [2] turned out to be 2.44 µmol. Further, the pIC50 in data set [4] is under 6.00.
